Measurements: patent US6737425B1, “N,N-substituted cyclic amine derivatives” (Eisai Co., Ltd., priority 1998, dated 2004)
Where a name gives a salt, the structure may show the parent alone.

How the values were obtained:
[1] = system: voltage-dependent calcium channels (cerebral cortex synaptosome); assay: Measurement of voltage-dependent calcium channel activity by the use of a fluorescent pigment (fura 2); assay type: cell-based; conditions: rat cerebral cortex synaptosome, fura 2, KCl stimulation, compound incubated 10 minutes
Summary of the method: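 Synaptosomes were prepared from rat cerebral cortex by sucrose homogenisation and 0.8 M sucrose gradient centrifugation. They were loaded with fura-2/AM by mixing with an equal volume of 4 μM loading solution for 40 min at room temperature. Verapamil hydrochloride served as the reference compound.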

[2] = system: glutamic acid release from rat cerebral cortex slices; assay: Inhibitory activity on glutamic acid release (cerebral cortex slices, high-conc. KCl); assay type: cell-based; conditions: glutamic acid release induced with 50 mM KCl, HPLC
Protocol: Inhibitory Activity on Glutamic Acid Release
Cerebral cortexes were isolated from SD strain male rats (8-week-old) and used to prepare 300 μm×300 μm slices by use of a slice chopper. The prepared slices were incubated at 37° C. for 30 minutes in solution C (120 mM NaCl, 4 mM KCl, 10 mM MgSO4, 16 mM NaHCO3, 10 mM glucose, 1 mM NaH2PO4, 10 mM HEPES-NaOH pH 7.4) in the presence of 95% O2/5% CO2. Thereafter, solution C was exchanged with fresh one, followed by further incubation for 30 minutes.
The cerebral cortex slices were incubated in a 24-wells plate for cell culture according to a multi-well method (Brain Res., 402, 255-263, 1987), and the release of glutamic acid was induced with 50 mM KCl. Solution D (120 mM NaCl, 4 mM KCl, 1.2 mM CaCl2, 1 mM MgSO4, 16 mM NaHCO3, 10 mM glucose, 1 mM NaH2PO4, 10 mM HEPES-NaOH pH 7.4) was aerated with 95% O2/5% CO2 and kept at 37° C. and used in this experiment. 50 mM KCl containing the same total amount of K^+ and Na^+ was prepared. Slices corresponding to 1 to 2 mg protein were placed on an upper cup provided with a mesh at the bottom, and 1.3 ml solution C or 50 mM KCl solution was introduced into a lower well, and the upper cup was transferred to a new well. 20 minutes before and 5 minutes after reaction was intiated, the test compound was added to solution D or 50 mM KCl.
Glutamic acid was quantified by HPLC using fluorescent etor (Ex. 330 nm Em. […]). The eluting solvent used was prepared by diluting 150 ml sodium citrate buffer for automatic amino acid analysis (Wako Pure Chemical Industries) 10-fold with distilled water, then adding MgCl2 thereto at the final concentration of 50 mM, and further diluting it twice with acetonitrile. The flow rate was 2.0 ml/min. The column used was Asahipak (ES-502N Denko, K. K.). The glutamic acid was converted into a derivative by addition, to 50 μl sample, of 50 μl deriving agent (10 mg o-phthalaldehyde/500 μl MeOH, 10 μl b-mercaptopropionic acid, 0.15 M sodium borate buffer pH 9.5, 100 μl) followed by stirring (Neuroscience Lett., 96, 202-206, 1989).

mice in a formalin test = assay: Antalgic effect (II) on mice in a formalin test (comparison with morphine and indomethacin); assay type: in vivo
Protocol: Antalgic Effect (II) on Mice in a Formalin Test
The typical example of the compound of the present invention (the compound in Example 1) was compared with morphine and indomethacin in the same manner as in Pharmacological Experimental Example 5 above.
20.4 mg of the compound of the present invention was weighed, and 10.2 ml of 5.28% mannitol was added thereto to prepare 2 mg/ml (20 mg/kg) solution. Then, 3.8 ml of 5.28% mannitol was added to 3.8 ml of the 2 mg/ml solution to prepare 1 mg/ml (10 mg/kg) solution. Finally, 2.5 ml of 5.28% mannitol was added to 2.5 ml of the 1 mg/ml solution to prepare 0.5 mg/ml (5 mg/kg) solution. The test compound was weighed and prepared on the day when the experiment was conducted.
b-1) Morphine 17.0 mg of morphine purchased as a reagent was weighed, and 5.67 ml physiological saline was added thereto to form 3 mg/ml (30 mg/kg) solution. Then, 2.6 ml physiological saline was added to 1.3 ml of the 3 mg/ml solution to prepare 1 mg/ml (10 mg/kg) solution. Finally, 2.1 ml physiological saline was added to 0.9 ml of the 1 mg/ml solution to prepare 0.3 mg/ml (3 mg/kg) solution. The test compound was weighed and prepared on the day when the experiment was conducted.
12.9 mg of indomethacin purchased as a reagent was weighed, and 12.9 ml of 0.5% methyl cellulose (MC) was added thereto to form 1 mg/ml (10 mg/kg) suspension. Then, 2.24 ml of 0.5% MC was added to 0.96 ml of the 1 mg/ml suspension to prepare 0.3 mg/ml (3 mg/kg) suspension. Finally, 1.6 ml of 0.5% MC was added to 0.8 ml of the 0.3 mg/ml suspension to prepare 0.1 mg/ml (1 mg/kg) suspension. The test compound was weighed and prepared on the day when the experiment was conducted.
The treatment group by the compound of the present invention consisted of 4 groups in total, that is, a control group, a 5 mg/kg compound administration group, a 10 mg/kg compound administration group, and a 20 mg/kg compound administration group, and each group consisted of 5 animals.
The control group was given 0.1 ml of 5.28% mannitol per 10 g of the body weight via the tail vein. The compound of the present invention was administered via the tail vein at each concentration (0.5 mg/ml, 1 mg/ml, and 2 mg/ml) in an volume of 0.1 ml per 10 g of the body weight into the 5 mg/kg group, 10 mg/kg group and 20 mg/kg group, respectively.
The treatment group by morphine consisted of 4 groups in total, that is, a control group, a 3 mg/kg morphine administration group, a 10 mg/kg morphine administration group, and a 30 mg/kg morphine administration group, and each group consisted of 5 animals.
The control group was orally given 0.1 ml of physiological saline per 10 g of the body weight. Morphine was orally administered at each concentration (0.3 mg/ml, 1 mg/ml, and 3 mg/ml) in a volume of 0.1 ml per 10 g of the body weight into the 3 mg/kg group, 10 mg/kg group and 30 mg/kg group, respectively.
The treatment group by indomethacin consisted of 4 groups in total, that is, a control group, a 1 mg/kg indomethacin administration group, a 3 mg/kg indomethacin administration group, and a 10 mg/kg indomethacin administration group, and each group consisted of 5 animals.
The control group was orally given 0.1 ml of 0.5% MC per 10 g of the body weight. Indomethacin was orally administered at each concentration (0.1 mg/ml, […], and 1 mg/ml) in a volume of 0.1 ml per 10 g of the body weight into the 1 mg/kg group, 3 mg/kg group and 10 mg/kg group, respectively.
5.28% mannitol was administered via the tail vein into each group given the compound of the present invention or into the control group, and the animals were placed in a transparent plastic observation cage. 5 minutes later, 20 μl of 3% formalin was subcutaneously administered into the bottom of the left hind leg of each mouse. The duration of the behavior of mouse's licking the left hind leg after administration of formalin was measured for 5 minutes and used as an indication of pain. The duration was expressed in second. […]

Structure (SMILES)	IC50 ([2]; Rattus norvegicus)	IC50 [1]	also measured
CC(C)C(C#N)(CCCN1CCN(CCOc2ccc(F)cc2)CC1)c1ccccc1 (single isomer, unassigned; (+)) [Example 76, (+)-1-[(4-Cyano-5-methyl-4-phenyl)hexyl]-4-[2-(4-fluorophenoxyl)ethyl]piperazine Hydrochloride]	–	–	IC50 ([1]; Hydrochloride): 5.8 µM; IC50 ([2]; Hydrochloride): 3900 nM
CC(C)C(C#N)(CCCN1CCN(CCOc2ccc(F)cc2)CC1)c1ccccc1 (single isomer, unassigned; (-)) [Example 75, hydrochloride]	2900 nM	–	IC50 ([1]; Hydrochloride): 4.5 µM
N#CC(CCCN1CCN(CCOc2ccc(F)cc2)CC1)(c1ccccc1)C1CCCCC1 (single isomer, unassigned; (-)) [Example 79, (−)-1-[(4-Cyano-4-cyclohexyl-4-phenyl)butyl]-4-[2-(4-fluorophenoxyl)ethyl]piperazine Hydrochloride]	5900 nM	–	IC50 ([1]; Hydrochloride): 3.3 µM
Cc1ccc(C(C#N)(CCCN2CCN(CCOc3ccc(F)cc3)CC2)C(C)C)cc1 (stereo not shown) [Example 9, 1-[4-Cyano-5-methyl-4-(4-methylphenyl)hexyl]-4-[2-(4-fluorophenoxy)ethyl]piperazine]	2400 nM	3.5 µM	–
CC(C)C(C#N)(CCCN1CCN(CCOc2ccc(F)cc2)CC1)c1ccc(Cl)cc1 (stereo not shown) [Example 10, 1-[4-Cyano-5-methyl-4-(4-chlorophenyl)hexyl]-4-[2-(4-fluorophenoxy)ethyl]piperazine]	2000 nM	3.2 µM	–
COc1ccc(C(C#N)(CCCN2CCN(CCOc3ccc(F)cc3)CC2)C(C)C)cc1 (stereo not shown) [Example 11, 1-[4-Cyano-5-methyl-4-(4-methoxyphenyl)hexyl]-4-[2-(4-fluorophenoxy)ethyl]piperazine]	3800 nM	4.8 µM	–
CC(C)C(C#N)(CCCN1CCN(CCOc2ccc(F)cc2)CC1)c1cccs1 (stereo not shown) [Example 20, 1-{[4-Cyano-5-methyl-4-(2-thienyl)hexyl]}-4-[2-(4-fluorophenoxy)ethyl]piperazine]	1900 nM	5.5 µM	–
CC(C)C(C#N)(CCCN1CCN(CCOc2ccc(F)cc2)CC1)c1ccccc1F (stereo not shown) [Example 22, 1-{[4-Cyano-5-methyl-4-(2-fluorophenyl)hexyl]}-4-[2-(4-fluorophenoxy)ethyl]piperazine]	4100 nM	5.4 µM	–
CC(C)C(C#N)(CCCN1CCN(CCOc2ccc(F)cc2)CC1)c1cccc(F)c1 (stereo not shown) [Example 23, 1-[{4-Cyano-5-methyl-4-(3-flourophenyl)hexyl]}-4-[2-(4-fluorophenoxy)ethyl]piperazine]	2500 nM	4.3 µM	–
CC(C)C(C#N)(CCCN1CCN(CCOc2ccc(F)cc2)CC1)c1ccc(F)cc1 (stereo not shown) [Example 24, 1-{[4-Cyano-5-methyl-4-(4-fluorophenyl)hexyl]}-4-[2-(4-fluorophenoxy)ethyl]piperazine]	2400 nM	3.9 µM	–
CC(C)C(C#N)(CCCN1CCN(CCOc2ccc(Cl)cc2)CC1)c1ccccc1 (stereo not shown) [Example 36, 1-[(4-Cyano-5-methyl-4-phenyl)hexyl]-4-[2-(4-chlorophenoxy)ethyl]piperazine]	4200 nM	3.4 µM	–
CC(C)C(C#N)(CCCN1CCN(CCN(C)c2ccc(F)cc2)CC1)c1ccccc1 (stereo not shown) [Example 52, 1-[(4-Cyano-5-methyl-4-phenyl)hexyl]-4-{2-[N-(4-fluorophenyl)-N-methylamino]ethyl}piperazine]	2900 nM	3.8 µM	–
COc1ccc2c(c1)c(CC(=O)O)c(C)n2C(=O)c1ccc(Cl)cc1 [indomethacin]	–	–	average left hind leg-licking time, Mean (mice in a formalin test; 1 mg/kg p.o., formalin 90 minutes later): 87.8 s; average left hind leg-licking time, Mean (mice in a formalin test; 3 mg/kg p.o., formalin 90 minutes later): 75.8 s; average left hind leg-licking time, Mean (mice in a formalin test; 10 mg/kg p.o., formalin 90 minutes later): 84.0 s; antalgic effect in the formalin test (mice in a formalin test; overall conclusion of the comparison): does not have any effect
CN1CC[C@]23c4c5ccc(O)c4O[C@H]2[C@@H](O)C=C[C@H]3[C@H]1C5 [morphine]	–	–	average left hind leg-licking time, Mean (mice in a formalin test; 3 mg/kg p.o., formalin 30 minutes later): 68.2 s; average left hind leg-licking time, Mean (mice in a formalin test; 10 mg/kg p.o., formalin 30 minutes later): 58.0 s; average left hind leg-licking time, Mean (mice in a formalin test; 30 mg/kg p.o., formalin 30 minutes later): 29.6 s
